Data set [1] relates to cellular proteasome chymotrypsin-like (CT-L) in MOLT-4 human acute lymphoblastic leukemia T lymphoblasts. In words: Proteosome inhibition in cells (AMC-LLVY fluorescent assay, FIGS. 9-14). The class given is cell-based. The conditions noted are these: MOLT-4 cells, 1 hour incubation; read-out: cellular proteasome chymotrypsin-like (CT-L) IC50 inhibitory potency. How it is done:
MOLT-4 human acute lymphoblastic leukemia T lymphoblasts were grown for at least 6 passages in growth media (RPMI-1640 basal media supplemented with 10% FBS and 1×L-glutamine). […] Serial dilutions were performed in DMSO to produce concentrations covering 7 logs, and then each serial dilution was further diluted 40× in growth media. Dilutions were then added in equal volume to wells containing cells, further diluting compound concentrations by two-fold. Cells were incubated at 37° C. (5% CO2) for 1 hour, then spun at 1500 rpm for 5 mins at RT. Media was removed and the cells were washed with PBS 3 times. After the last wash, supernatant was removed and the cell pellets were frozen on dry ice. Cell pellets were thawed and then lysed by resuspending in 50 uL lysis buffer on ice (20 mM Tris-HCl, 5 mM EDTA, pH 8). The preparation was centrifuged at 1500 rpm for 5 mins and then utilized directly for AMC-LLVY fluorescent assay.

A short description of data set [2]: PEG-carfilzomib mouse pK (FIG. 2). More on the design: species or system mice (Balb/c). The conditions noted are these: in vivo, iv. How it is done: Mean plasma concentration (μM) following intravenous administration of PEG-carfilzomib conjugate to female Balb/c mice (n=3). Dosage indicated is mg/kg of PEG-carfilzomib conjugate. […] Blood samples were collected at the indicated time points and plasma carfilzomib concentrations were measured in duplicate by LC/MS-MS. […] This standard carfilzomib represents the currently approved formulation for carfilzomib for treatment of multiple myeloma.

Data set [3] relates to HT-29 Human Colorectal Adenocarcinoma Xenograph Model. In words: Efficacy study in HT-29 xenograph model (FIG. 5, FIG. 6, Table 6). The conditions noted are these: for % Change compared to Vehicle: Day 40; for Day 0 Tumor Vol: baseline; for # of animals at day 40: n = 10 at start. The class given is in vivo, SCID Beige Mice. The text has this:
(§1) Female Beige Severe Combined Immune Deficiency (SCID) mice (60 plus spares) were purchased from Harlan Laboratories (Livermore, Calif.) as 6- to 7-week-old mice. Following arrival, animals were weighed using an electronic balance (Ohaus SCOUT® PRO, Parsippany, N.J.), given a clinical examination to ensure that the animals were in good condition, and housed 5 per cage (prior to dosing). The animals were maintained in a HEPA-filtered environment in a Micro-VENT full-ventilation rodent housing system (Allentown Caging Equipment Co., Allentown, N.J.) providing at least 10 room air changes per hour Animal room controls were set to maintain temperature and relative humidity at 20° C.±1° C. and 50%±20%, respectively. Housing rooms were on a 12:12 light/dark cycle. Cages were autoclaved, and animals were bedded on SaniChip irradiated bedding 7990.BG (Harlan Teklad; Hayward, Calif.). Water was autoclaved and supplied ad libitum to each cage via water bottles. Irradiated 2018 Teklad Global 16% Protein Rodent Diet ((Harlan Teklad) supplied ad libitum to each cage.
Example 13 was prepared as generally described above. The carfilzomib comparator compound was prepared as CFZ-captisol (at 1 mg/mL). A powder sample of example 13 was diluted to 30 mg/ml (Group 3) or 50 mg/ml (Group 3 beginning fourth dose) or 40 mg/ml (Group 4) in 10% ETOH/saline. Vehicle and CFZ-captisol were stored at 4° C. throughout the study. During the study, example 13 was inspected regularly for potential changes in the quality of the suspension; none were observed
NCI-HT29 (HT-29; ATCC® HTB-38™), a human colorectal adenocarcinoma cancer cell (CA) line, was purchased from ATCC (Manassas, Va.). Following receipt at the MGI, cells were grown in-house for 7 passages in RPMI 1640 and 10% fetal bovine serum, then used to generate frozen stocks. The cells were recovered from the frozen stocks and cultured as above. Following growth, the cells were spun down and resuspended at a concentration of 5E07 cells/mL in serum-free medium without additives, then combined 1:1 with Matrigel™ (Trevigen, Gaithersburg, Md.). At the time of implant, cells corresponded to MGI Passage 7 (MGP7).
At approximately 3 weeks prior to the projected staging day, mice were implanted by subcutaneous (SC) injection into the lower left abdominal flank with 200 μL (5.0E06 cells) per mouse of the freshly prepared HT29:Matrigel mixture. All procedures were carried out in HEPA-filtered laminar-flow hoods.
When the tumors reached a mean volume of approximately 200 mm^3 per mouse, forty animals with established tumors and moderate body weights were randomized into 4 treatment groups (n=10 mice per group). Starting on Day 0, animals were administered by once-weekly (qw) injection with vehicle (Group 1) or twice-weekly D1D2 injection (i.e., two adjacent days each week) with CFZ-captisol at 5 mpk (Group 2) or OP-59381 at 150 mg/kg (Groups 3). Starting with the fourth dose (i.e., after three week), dosing of Group 3 animals was increased to 250 mg/kg. Group 4 was dosed once-weekly (qw) injection with or OP-59381 (Example 13) at 200 mg/kg. All of these doses were administered as intravenous (IV) injections at dose volumes of 5 mL/kg. After the IV dosing for the seventh week (i.e., after Day 42 for Groups 1-4), the tumor treatment efficacy appeared to slow or cease altogether.

Data set [4] relates to HT-29 Colorectal Adenocarcinoma Xenograph Model. In words: Second efficacy study in HT-29 xenograph model (FIG. 7). It counts as in vivo, SCID Beige Mice.
From the text: as §1
Example 13 was formulated as described herein to the desired concentration. Carfilzomib was provided as CFZ-captisol (at 1 mg/mL). a powder sample of Example 13 was diluted to 30 mg/ml (Group 3) or 50 mg/ml (Group 4) in 10% ETOH/saline. Vehicle and CFZ-captisol were stored at 4° C. throughout the study. […]

The conditions of data set [5]: mouse, in vivo, iv, 5 mg/kg.
Method: The PEG carfilzomib compounds were administered to mice (Balb/c, male, n=9 per dose group) as an intravenous (i.v.) bolus at 5 mg/kg (equivalent to carfilzomib, dose volume 1 mL/kg). Blood samples from each mouse were collected at the indicated time points (0.5, 1, 2, 4, 6, 12, 16 and 24 hours post-dose) and 25 μL of the plasma samples were extracted by protein precipitation with 125 μL of acetonitrile containing D10-CFZ as an internal standard and then centrifuged. Carfilzomib concentrations were measured in the supernatant by LC-MS/MS using multiple reaction monitoring in the positive electrospray ionization mode. The lower limit of quantitation of the assay was 0.500 ng/mL.
The conditions of data set [6]: in humans; cited from earlier work.
Where [7] appears, read: Group 3, 150 mpk to 250 mpk (QW) IV.

A word on the IC50: it is the concentration that gives 50% inhibition.

Regarding “4-(4-Acetoxy-3-((1-PEG2K-1H-1,2,3-triazol-4-yl)methoxy)benzyl)-4-((4S,7S,10S,13S)-10-benzyl-7-isobutyl-15-methyl-13-((R)-2-methyloxirane-2-carbonyl)-2,5,8,11-tetraoxo-4-phenethyl-3,6,9,12-tetraazahexadecyl)morpholin-4-ium mesylate [Example 36]”, the IC50 in data set [1] was roughly 21.8 nM.

Take “4-(4-acetoxy-3-((1-(5-((2-PEG2K-ethyl)amino)-5-oxopentyl)-1H-1,2,3-triazol-4-yl)methoxy)benzyl)-4-((4S,7S,10S,13S)-10-benzyl-7-isobutyl-15-methyl-13-((R)-2-methyloxirane-2-carbonyl)-2,5,8,11-tetraoxo-4-phenethyl-3,6,9,12-tetraazahexadecyl)morpholin-4-ium mesylate [Example 38]”: the IC50 in data set [1] was roughly 21.8 nM.

With “4-((4S,7S,10S,13S)-10-Benzyl-7-isobutyl-15-methyl-13-((R)-2-methyloxirane-2-carbonyl)-2,5,8,11-tetraoxo-4-phenethyl-3,6,9,12-tetraazahexadecyl)-4-(3-((1-(PEG20K-4-Arm)-1H-1,2,3-triazol-4-yl)methoxy)-4-(pivaloyloxy)benzyl)morpholin-4-ium formate [Example 13]”, in data set [2], the “plasma concentration relative to control” value was “multiple log-fold over that of the control”. Also, the “tumor growth vs. vehicle control by Day 19” value in data set [3] (200 mpk Example 13, 5 mpk CFZ-captisol) is “significantly attenuated”. In data set [3] (setting [7]), the “Day 40 Tumor Vol” value turned out to be 998.5 mm^3, the “% Change compared to Vehicle” value is recorded as −59.6%, the “Day 0 Tumor Vol” value is recorded as 95.5 mm^3 and the “# of animals at day 40” value is 9. Further, in data set [3] (Group 4, 200 mpk (QW) IV), the “Day 40 Tumor Vol” value was found to be 1443.0 mm^3, the “% Change compared to Vehicle” value is −41.6%, the “Day 0 Tumor Vol” value worked out at 95.9 mm^3 and the “# of animals at day 40” value is given as 7. In addition, in data set [4] (Group 3, example 13 at 150 mg/kg IV (Table 7: QD × 2 (D1D2) × 6 weeks)), the “Day-41 tumor sizes, % of control” value is listed as 79.6%. For the same molecule, in data set [4] (Group 4, example 13 at 250 mg/kg IV, QW × 6 weeks), the “Day-41 tumor sizes, % of control” value is 61.8%. For the same molecule, in data set [5], the AUC0-24 is 3510 ng·h/mL, the T1/2 was found to be 3.68 h, the “carfilzomib plasma concentration-time profile (FIG. 4)” value is recorded as “significantly higher plasma concentrations for that lengthy duration of time” and the “time carfilzomib is present in / released into the plasma post administration” value amounted to 25 h.

Regarding “4-(4-Acetoxy-3-((1-PEG3K-1H-1,2,3-triazol-4-yl)methoxy)benzyl)-4-((4S,7S,10S,13S)-10-benzyl-7-isobutyl-15-methyl-13-((R)-2-methyloxirane-2-carbonyl)-2,5,8,11-tetraoxo-4-phenethyl-3,6,9,12-tetraazahexadecyl)morpholin-4-ium mesylate [Example 35]”, in data set [1], the IC50 was roughly 9 nM.

Take “4-(4-acetoxy-3-((1-(5-((2-PEG3K-ethyl)amino)-5-oxopentyl)-1H-1,2,3-triazol-4-yl)methoxy)benzyl)-4-((4S,7S,10S,13S)-10-benzyl-7-isobutyl-15-methyl-13-((R)-2-methyloxirane-2-carbonyl)-2,5,8,11-tetraoxo-4-phenethyl-3,6,9,12-tetraazahexadecyl)morpholin-4-ium mesylate [Example 37]”: the IC50 in data set [1] is roughly 22.8 nM.

With `CC(C)C[C@H](NC(=O)[C@H](CCc1ccccc1)NC(=O)CN1CCOCC1)C(=O)N[C@@H](Cc1ccccc1)C(=O)N[C@@H](CC(C)C)C(=O)[C@@]1(C)CO1` [carfilzomib, Carfilzomib], the IC50 in data set [1] was roughly 9.2 nM. Moreover, the half-life in-vivo in data set [6] was no more than 1 h.

Values taken from US10517954B2, “Pegylated carfilzomib compounds” (AMGEN INC., priority 2016, dated 2019).
